# Where two headings read alike, the source gives them in different places.
# Legend:
# PfCRT^3D7 [1] = molecular target: T1, PfCRT^3D7 (Plasmodium falciparum, UniProt Q8IBZ9); assay: cell-based; type: cell-based; conditions: for Uptake of [3H]CQ (% PfCRT3D7 control), trans-stimulation / PfCRT-mediated [3H]CQ transport, trans-stimulation (% PfCRT3D7 control): PfCRT3D7 oocytes; for Uptake of [3H]CQ (% PfCRT3D7 control), trans-stimulation: total [3H]CQ transport, normalised to the oocyte type control; for PfCRT-mediated [3H]CQ transport, trans-stimulation (% PfCRT3D7 control): normalised to oocyte type control
# Outline: (§1)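 Oocytes (ten per treatment, ≥4 independent frogs/days) were preloaded by injecting VF-6 in 25 nL ND96 at pH 5.0, 5.5, 6.0 or 7.0, or Na^+-free choline buffer, then uptake run 1.5 h, 27.5 °C, ND96 pH 5.5 by default. Internal concentrations assumed ~400 nL oocyte volume.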
# PfCRT^Ecu1110 [2] = molecular target: T2, PfCRT^Ecu1110 (Plasmodium falciparum, UniProt Q9N623, A220S/I356L/K76T/N326D); assay: cell-based; type: cell-based; conditions: for PfCRT-mediated [3H]CQ transport, trans-stimulation (% PfCRTEcu1110 control): normalised to oocyte type control; for [3H]CQ transport (% PfCRTDd2 control), trans-stimulation, PfCRTEcu1110: PfCRT-mediated component (background subtracted), sheet title says normalised to PfCRTDd2 control, mean ± SEM, SEM
# Outline: as §1
# PfCRT^Dd2 [3] = molecular target: T3, PfCRT^Dd2 (Plasmodium falciparum, UniProt Q9N623, A220S/I356T/K76T/M74I/N326S/N75E/Q271E/R371I); assay: cell-based; type: cell-based; conditions: for Uptake of [3H]CQ (% PfCRTDd2 control), trans-stimulation / PfCRT-mediated [3H]CQ transport, trans-stimulation (% PfCRTDd2 control): PfCRTDd2 oocytes; for Uptake of [3H]CQ (% PfCRTDd2 control), trans-stimulation: total [3H]CQ transport, normalised to the oocyte type control; for PfCRT-mediated [3H]CQ transport, trans-stimulation (% PfCRTDd2 control): normalised to oocyte type control; for [3H]CQ transport (% PfCRTDd2 control), trans-stimulation, PfCRTDd2: PfCRT-mediated component (background subtracted), mean ± SEM, SEM
# Outline: as §1
# PfNT1 = molecular target: T4, PfNT1 (Plasmodium falciparum, UniProt Q8IDM6); assay: cell-based; type: cell-based; conditions: PfNT1 oocytes, total [3H]CQ transport, normalised to the oocyte type control
# T4 construct: expressed in transfected cells; host or cells: Xenopus laevis oocytes (stage V-VI), cRNA-injected
# Outline: as §1
# PfCRT^3D7 [4] = molecular target: T1, PfCRT^3D7; assay: cell-based; type: cell-based; conditions: PfCRT3D7 oocytes, total [3H]CQ transport, normalised to the oocyte type control
# Outline: (§2)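 Inward transport into oocyte cytosol from pH 5.5 medium models PfCRT efflux from the acidic digestive vacuole. Incubation 1.5 h, 27.5 °C; termination by ice-cold washes; lysate radioactivity counted.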
# non-expressing oocytes [5] = assay: cells; type: cell-based, Xenopus laevis; conditions: non-expressing oocytes, total [3H]CQ transport, normalised to the oocyte type control
# Outline: as §2
# PfCRT^Ecu1110 [6] = molecular target: T2, PfCRT^Ecu1110; assay: [3H]CQ uptake into Xenopus oocytes, cis-inhibition by unlabelled solute; type: cell-based; conditions: for Uptake of [3H]CQ (% PfCRTEcu1110 control), cis-inhibition / PfCRT-mediated [3H]CQ transport, cis-inhibition (% PfCRTEcu1110 control): PfCRTEcu1110 oocytes; for Uptake of [3H]CQ (% PfCRTEcu1110 control), cis-inhibition: total [3H]CQ transport, normalised to the oocyte type control; for PfCRT-mediated [3H]CQ transport, cis-inhibition (% PfCRTEcu1110 control): background [3H]CQ accumulation subtracted, normalised to oocyte type control
# Outline: as §2
# PfCRT^Dd2 [7] = molecular target: T3, PfCRT^Dd2; assay: as above; type: cell-based; conditions: PfCRTDd2 oocytes, background [3H]CQ accumulation subtracted, normalised to oocyte type control
# Outline: as §2
# non-expressing oocytes [8] = type: cell-based, Xenopus laevis; conditions: non-expressing oocytes, total [3H]CQ transport, normalised to the oocyte type control
# Outline: as §1
# [9] = [test solute]i = 45 mM (30 mM for some solutes due to solubility)
# [10] = [test solute]i = 5 mM (intracellular)
# [11] = [test solute]i = 45 mM (intracellular; 30 mM for some solutes due to solubility)
# [12] = [test solute]i = 5 mM (injected)
# T1 sequence (Q8IBZ9 59-398): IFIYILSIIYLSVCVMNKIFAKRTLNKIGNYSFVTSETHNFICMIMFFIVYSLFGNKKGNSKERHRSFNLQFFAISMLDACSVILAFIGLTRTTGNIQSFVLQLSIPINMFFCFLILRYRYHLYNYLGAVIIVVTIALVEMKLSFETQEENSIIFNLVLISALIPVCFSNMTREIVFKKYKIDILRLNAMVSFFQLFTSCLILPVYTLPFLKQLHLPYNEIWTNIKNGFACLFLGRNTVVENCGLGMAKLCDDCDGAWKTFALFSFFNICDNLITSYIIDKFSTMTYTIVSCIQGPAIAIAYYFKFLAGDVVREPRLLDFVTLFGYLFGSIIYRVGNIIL
# T2 sequence (Q9N623 whole entry A220S/I356L/K76T/N326D): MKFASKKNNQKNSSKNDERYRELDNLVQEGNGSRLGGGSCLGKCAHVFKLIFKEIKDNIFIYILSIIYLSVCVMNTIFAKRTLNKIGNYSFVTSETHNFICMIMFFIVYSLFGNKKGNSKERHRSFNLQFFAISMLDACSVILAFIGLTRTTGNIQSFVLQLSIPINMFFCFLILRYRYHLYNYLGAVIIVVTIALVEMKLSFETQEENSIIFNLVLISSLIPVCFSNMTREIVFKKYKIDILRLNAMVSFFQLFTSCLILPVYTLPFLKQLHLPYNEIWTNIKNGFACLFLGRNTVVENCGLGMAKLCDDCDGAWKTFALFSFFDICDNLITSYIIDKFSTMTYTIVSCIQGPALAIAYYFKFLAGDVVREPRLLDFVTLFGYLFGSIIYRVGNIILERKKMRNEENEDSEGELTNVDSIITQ
# T3 sequence (Q9N623 whole entry A220S/I356T/K76T/M74I/N326S/N75E/Q271E/R371I): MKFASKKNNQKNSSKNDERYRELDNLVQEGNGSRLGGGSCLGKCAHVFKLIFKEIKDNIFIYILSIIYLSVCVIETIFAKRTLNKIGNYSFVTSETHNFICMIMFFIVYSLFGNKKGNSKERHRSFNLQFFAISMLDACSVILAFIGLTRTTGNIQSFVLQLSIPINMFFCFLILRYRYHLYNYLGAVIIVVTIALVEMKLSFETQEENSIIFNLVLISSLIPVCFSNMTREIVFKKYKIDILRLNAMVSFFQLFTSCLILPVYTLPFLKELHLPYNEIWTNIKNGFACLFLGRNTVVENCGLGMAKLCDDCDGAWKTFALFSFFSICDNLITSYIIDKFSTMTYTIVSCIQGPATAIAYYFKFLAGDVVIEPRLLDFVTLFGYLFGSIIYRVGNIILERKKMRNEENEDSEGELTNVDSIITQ
# T4 sequence (Q8IDM6 whole entry): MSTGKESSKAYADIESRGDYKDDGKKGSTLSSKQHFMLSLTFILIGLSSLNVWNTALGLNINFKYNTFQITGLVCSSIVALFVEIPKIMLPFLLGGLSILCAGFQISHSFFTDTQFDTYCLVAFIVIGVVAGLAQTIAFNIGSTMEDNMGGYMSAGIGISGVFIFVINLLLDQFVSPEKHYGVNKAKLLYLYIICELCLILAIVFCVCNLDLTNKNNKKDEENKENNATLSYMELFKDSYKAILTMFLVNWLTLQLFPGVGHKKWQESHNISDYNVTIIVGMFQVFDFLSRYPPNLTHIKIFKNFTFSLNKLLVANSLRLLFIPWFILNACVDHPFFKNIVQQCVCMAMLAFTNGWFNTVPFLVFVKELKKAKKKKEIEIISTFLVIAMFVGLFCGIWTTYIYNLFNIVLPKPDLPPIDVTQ
substance,measurement,setting,value
HVDD [HD-4],"Uptake of [3H]CQ (% PfCRT3D7 control), trans-stimulation",PfCRT^3D7 [1]; [test solute]i = 5 mM,98 ± 4.1 % PfCRT3D7 control
same,"Uptake of [3H]CQ (% PfCRT3D7 control), trans-stimulation",PfCRT^3D7 [1]; [9],96 ± 1.7 % PfCRT3D7 control
same,"[3H]CQ transport (% PfCRT3D7 control), trans-stimulation, PfCRT3D7",PfCRT^3D7 [1]; SEM,0.1 ± 0.01
same,"PfCRT-mediated [3H]CQ transport, trans-stimulation (% PfCRT3D7 control)",PfCRT^3D7 [1]; [10],96 ± 3.3 % PfCRT3D7 control
same,"PfCRT-mediated [3H]CQ transport, trans-stimulation (% PfCRT3D7 control)",PfCRT^3D7 [1]; [11],94 ± 4.9 % PfCRT3D7 control
same,"Uptake of [3H]CQ (% PfCRTEcu1110 control), trans-stimulation","PfCRT^Ecu1110 [2]; PfCRTEcu1110 oocytes, [test solute]i = 45 mM (30 mM for some solutes due to solubility), total [3H]CQ transport, normalised to the oocyte type control",99 ± 3.2 % PfCRTEcu1110 control
same,"PfCRT-mediated [3H]CQ transport, trans-stimulation (% PfCRTEcu1110 control)","PfCRT^Ecu1110 [2]; [test solute]i = 5 mM (intracellular), PfCRTEcu1110 oocytes",99 ± 4.9 % PfCRTEcu1110 control
same,"PfCRT-mediated [3H]CQ transport, trans-stimulation (% PfCRTEcu1110 control)","PfCRT^Ecu1110 [2]; [test solute]i = 45 mM (intracellular; 30 mM for some solutes due to solubility), PfCRTEcu1110 oocytes",97 ± 4.8 % PfCRTEcu1110 control
same,"[3H]CQ transport (% PfCRTDd2 control), trans-stimulation, PfCRTEcu1110",PfCRT^Ecu1110 [2]; [12],30 ± 1.6 % PfCRTEcu1110 control
same,"[3H]CQ transport (% PfCRTDd2 control), trans-stimulation, PfCRTEcu1110",PfCRT^Ecu1110 [2]; [9],29 ± 1.5 % PfCRTEcu1110 control
same,"Uptake of [3H]CQ (% PfCRTDd2 control), trans-stimulation",PfCRT^Dd2 [3]; [test solute]i = 5 mM,99 ± 4.3 % PfCRTDd2 control
same,"Uptake of [3H]CQ (% PfCRTDd2 control), trans-stimulation",PfCRT^Dd2 [3]; [9],100 ± 2.4 % PfCRTDd2 control
same,"PfCRT-mediated [3H]CQ transport, trans-stimulation (% PfCRTDd2 control)",PfCRT^Dd2 [3]; [10],97 ± 2.9 % PfCRTDd2 control
same,"PfCRT-mediated [3H]CQ transport, trans-stimulation (% PfCRTDd2 control)",PfCRT^Dd2 [3]; [11],98 ± 3.9 % PfCRTDd2 control
same,"[3H]CQ transport (% PfCRTDd2 control), trans-stimulation, PfCRTDd2",PfCRT^Dd2 [3]; [12],97 ± 2.9 % PfCRTDd2 control
same,"[3H]CQ transport (% PfCRTDd2 control), trans-stimulation, PfCRTDd2",PfCRT^Dd2 [3]; [9],98 ± 3.9 % PfCRTDd2 control
same,"Uptake of [3H]CQ (% PfNT1 control), trans-stimulation",PfNT1; [test solute]i = 5 mM,100 ± 2.7 % PfNT1 control
same,"Uptake of [3H]CQ (% PfNT1 control), trans-stimulation",PfNT1; [9],99 ± 2.5 % PfNT1 control
same,"Uptake of [3H]CQ (% PfCRT3D7 control), cis-inhibition",PfCRT^3D7 [4]; [test solute] = 0.5 mM,100 ± 3.8 % PfCRT3D7 control
same,"Uptake of [3H]CQ (% PfCRT3D7 control), cis-inhibition",PfCRT^3D7 [4]; [test solute] = 1 mM,102 ± 3.7 % PfCRT3D7 control
same,"Uptake of [3H]CQ (% PfCRT3D7 control), cis-inhibition",PfCRT^3D7 [4]; [test solute] = 2 mM,99 ± 3.6 % PfCRT3D7 control
same,"Uptake of [3H]CQ (% non-expressing oocyte control), cis-inhibition",non-expressing oocytes [5]; [test solute] = 0.5 mM,99 ± 5.3 % non-expressing oocyte control
same,"Uptake of [3H]CQ (% non-expressing oocyte control), cis-inhibition",non-expressing oocytes [5]; [test solute] = 1 mM,100 ± 5.2 % non-expressing oocyte control
same,"Uptake of [3H]CQ (% non-expressing oocyte control), cis-inhibition",non-expressing oocytes [5]; [test solute] = 2 mM,97 ± 5.5 % non-expressing oocyte control
same,"Uptake of [3H]CQ (% PfCRTEcu1110 control), cis-inhibition",PfCRT^Ecu1110 [6]; [test solute] = 0.5 mM,53 ± 8.3 % PfCRTEcu1110 control
same,"Uptake of [3H]CQ (% PfCRTEcu1110 control), cis-inhibition",PfCRT^Ecu1110 [6]; [test solute] = 1 mM,44 ± 6.1 % PfCRTEcu1110 control
same,"Uptake of [3H]CQ (% PfCRTEcu1110 control), cis-inhibition",PfCRT^Ecu1110 [6]; [test solute] = 2 mM,32 ± 4.7 % PfCRTEcu1110 control
same,"PfCRT-mediated [3H]CQ transport, cis-inhibition (% PfCRTEcu1110 control)",PfCRT^Ecu1110 [6]; [test solute] = 0.5 mM,49 ± 1.4 % PfCRTEcu1110 control
same,"PfCRT-mediated [3H]CQ transport, cis-inhibition (% PfCRTEcu1110 control)",PfCRT^Ecu1110 [6]; [test solute] = 1 mM,39 ± 3.1 % PfCRTEcu1110 control
same,"PfCRT-mediated [3H]CQ transport, cis-inhibition (% PfCRTEcu1110 control)",PfCRT^Ecu1110 [6]; [test solute] = 2 mM,28 ± 1.3 % PfCRTEcu1110 control
same,"[3H]CQ transport (% PfCRTEcu1110 control), cis-inhibition, PfCRTEcu1110","PfCRT^Ecu1110 [6]; cis-inhibition, [test solute] = 2 mM, PfCRT-mediated component (background subtracted), sheet title says normalised to PfCRTDd2 control, mean ± SEM, SEM",9.0 ± 0.03 % PfCRTEcu1110 control
same,"PfCRT-mediated [3H]CQ transport, cis-inhibition (% PfCRTDd2 control)",PfCRT^Dd2 [7]; [test solute] = 0.5 mM,44 ± 2.3 % PfCRTDd2 control
same,"PfCRT-mediated [3H]CQ transport, cis-inhibition (% PfCRTDd2 control)",PfCRT^Dd2 [7]; [test solute] = 1 mM,31 ± 1.0 % PfCRTDd2 control
same,"PfCRT-mediated [3H]CQ transport, cis-inhibition (% PfCRTDd2 control)",PfCRT^Dd2 [7]; [test solute] = 2 mM,19 ± 0.8 % PfCRTDd2 control
same,"Uptake of [3H]CQ (% non-expressing oocyte control), trans-stimulation",non-expressing oocytes [8]; [test solute]i = 5 mM,100 ± 3.6 % non-expressing oocyte control
same,"Uptake of [3H]CQ (% non-expressing oocyte control), trans-stimulation",non-expressing oocytes [8]; [9],98 ± 3.3 % non-expressing oocyte control

# — article PMC7413254 (Nature Communications, 2020)
